Experimental findings from ChEMBL document CHEMBL1154502, “Small, non-peptide C5a receptor antagonists: part 2” (Bioorg Med Chem Lett, 2008) are described below.

As a reminder, the IC50 is the concentration at which inhibition is half-maximal. The term logD denotes the decadic logarithm of the distribution of all forms, ionised or not, between an organic phase and buffer at a given pH. The low end stands for a more hydrophilic compound, the high end for a more lipophilic compound. In general, pKa refers to the pH at which an ionisable group is half protonated.

Data set [1] concerns the target T1, C5a anaphylatoxin chemotactic receptor 1 (Homo sapiens, UniProt P21730).
T1 sequence (P21730 whole entry): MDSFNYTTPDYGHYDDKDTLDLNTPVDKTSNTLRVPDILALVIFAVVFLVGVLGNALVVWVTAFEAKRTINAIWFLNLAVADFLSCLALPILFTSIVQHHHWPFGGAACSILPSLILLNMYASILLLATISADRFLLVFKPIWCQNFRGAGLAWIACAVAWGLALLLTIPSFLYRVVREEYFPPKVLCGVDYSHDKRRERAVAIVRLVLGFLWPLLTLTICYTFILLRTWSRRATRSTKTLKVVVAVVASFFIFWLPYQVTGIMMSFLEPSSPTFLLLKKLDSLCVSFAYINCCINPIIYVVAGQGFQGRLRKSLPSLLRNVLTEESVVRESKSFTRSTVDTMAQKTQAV
The experiment in a line: Displacement of [125I]C5a from C5a receptor in cAMP differentiated human U937 cells by filtration assay. Format: cell-based, U-937. Background: In a radioligand displacement assay an active substance lowers the binding of a labelled ligand.

In data set [2] the target is T2, C5a anaphylatoxin chemotactic receptor 1 (Homo sapiens) (UniProt P21730).
T2 sequence (whole entry): T1 sequence (P21730 whole entry)
The experiment in a line: Antagonist activity at C5a receptor assessed as free drug level required to induce 10-fold shift in C5a-stimulated CD11b upregulation in heparinised human whole blood preincubated 1 min prior to C5a challenge by dose-response curve analysis. Format: functional, tissue-based.

The target in data set [3] is T2, C5a anaphylatoxin chemotactic receptor 1 (Homo sapiens). The experiment in a line: Antagonist activity at C5a receptor assessed as total drug level required to induce 10-fold shift in C5a-stimulated CD11b upregulation in heparinised human whole blood preincubated 1 min prior to C5a challenge by dose-response curve analysis. Format: functional, tissue-based.
A short description of data set [4]: Octanol-neutral buffer distribution coefficient, log D at pH 7.4. Type of data set: physicochemical.
Data set [5] in a line: Protein binding in human plasma. The note with it: read-out: PPB (converted). Type of data set: ADME, cell-free.
Data set [6] in a line: Dissociation constant, pKa of the compound. Format: physicochemical.
The target in data set [7] is T1, C5a anaphylatoxin chemotactic receptor 1. The data set can be described thus: Antagonist activity at C5a receptor assessed as inhibition of C5a-induced elastase release in human neutrophils during degranulation preincubated 5 mins prior to C5a challenge using p-nitroanilide as substrate. Type of data set: functional.
A short description of data set [8]: Lipophilicity, log D of the compound. The note with it: octanol/water. Format: physicochemical.
The target of data set [9] is T2, C5a anaphylatoxin chemotactic receptor 1 (Homo sapiens). The data set can be described thus: Binding affinity to C5a receptor assessed as free drug level required for translation of C5a-induced CD11b upregulation in heparinised human whole blood preincubated 1 min prior to C5a challenge by dose-response curve analysis. Format: tissue-based.
The target is the same in data set [10]. The experiment in a line: Binding affinity to C5a receptor assessed as total drug level required for translation of C5a-induced CD11b upregulation in heparinised human whole blood preincubated 1 min prior to C5a challenge by dose-response curve analysis. Format: tissue-based.

With `CN(C)Cc1ccccc1C(=O)N(CCc1ccc(Cl)cc1)C1CCC2(CC1)OCCO2`, the half-maximal inhibitory concentration (IC50) in data set [1] was determined as 500 nM. Further, the Activity in data set [2] is greater than 40 nM; in data set [3], greater than 10 µM. The logD in data set [4] was 3.3. In addition, in data set [5], the fraction unbound was 0.004. In addition, in data set [6], the pKa stood at 8.4.

Consider `Clc1ccc(Cc2cnc(-c3csc4ccccc34)n2C2CCC3(CC2)OCCO3)cc1`, for which the IC50 in data set [1] was 500 nM. The same molecule had a log distribution coefficient (logD) in data set [4] greater than 4.

In turn, `Clc1ccc2nc(-c3csc4ccccc34)n(C3CCC4(CC3)OCCO4)c2c1Cl` had an IC50 in data set [1] of 790 nM. The logD in data set [4] is greater than 5.

As for `COC(=O)C(Cc1ccc(Cl)cc1)N(C(=O)c1csc2ccccc12)C1CCC2(CC1)OCCO2` (racemic), the half-maximal inhibitory concentration (IC50) in data set [1] stood at 15 nM; in data set [7], 172 nM.

Molecule `Clc1ccc(CC2CN=C(c3csc4ccccc34)N2C2CCC3(CC2)OCCO3)cc1` (centres undefined) had an IC50 in data set [1] greater than 1000 nM.

As for `Clc1cccc2nc(-c3csc4ccccc34)n(C3CCC4(CC3)OCCO4)c12`, the IC50 in data set [1] turned out to be 325 nM.

Take `CCc1ccccc1C(=O)N(C1CCC2(CC1)OCCO2)C(Cc1ccc(Cl)cc1)C(=O)O` (racemic): the IC50 in data set [1] was determined as 350 nM.

Consider `Cc1nc(-c2csc3ccccc23)n(C2CCC3(CC2)OCCO3)c1Cc1ccc(Cl)cc1`, for which, in data set [1], the 50% inhibitory concentration (IC50) is 90 nM. The molecule also had a log distribution coefficient (logD) in [4] of 4.6.

Consider `CCc1ccccc1C(=O)N(C1CCC2(CC1)OCCO2)[C@H](CCN(C)C)Cc1ccc(Cl)cc1`, for which, in data set [1], the IC50 is greater than 1000 nM.

On to `CCOC(=O)C(Cc1ccc(Cl)cc1)N(C(=O)c1cccc2ccccc12)C1CCC2(CC1)OCCO2` (racemic), for which the figures for the IC50 in [1] and in data set [7] were 3 nM and 32 nM, respectively.

In data set [8], `O=C(Nc1ccc(F)cc1F)N1CCC(N(CCc2ccc(Cl)cc2)C(=O)c2csc3ccccc23)CC1` gave a logD of less than 4.

For `c1ccc2c(-c3ncc(CC4CCCCC4)n3C3CCC4(CC3)OCCO4)csc2c1`, the half-inhibitory concentration (IC50) in [1] was determined as 47 nM; in data set [7], 850 nM.

In turn, `CCc1ccccc1C(=O)N(C1CCC2(CC1)OCCO2)[C@H](CCN1CCOCC1)Cc1ccc(Cl)cc1` gave an IC50 in data set [1] of 200 nM. In addition, the Activity in data set [2] came out at 119 nM; in data set [9], 0.6 nM; in data set [3], 4.4 µM; in data set [10], 22 nM. In [4], this molecule showed a logD of 3.4. For the same molecule, the fraction unbound in data set [5] was 0.027.

As for `COc1cccc(-c2ncc(Cc3ccc(Cl)cc3)n2C2CCC3(CC2)OCCO3)c1`, the IC50 in [1] is greater than 1000 nM. For the same molecule, the logD in [4] turned out to be 4.

In data set [1], `CC(=O)C(Cc1ccc(Cl)cc1)N(C(=O)c1csc2ccccc12)C1CCC2(CC1)OCCO2` (racemic) registered a half-maximal inhibitory concentration (IC50) of 45 nM.

In the case of `Clc1ccc(Cc2cnc(-c3cccc4ccccc34)n2C2CCC3(CC2)OCCO3)cc1`, the figures for the IC50 in data set [1] and in data set [7] were 90 nM and 877 nM, respectively.

For the molecule `Clc1ccc(Cc2nnc(-c3cccc4ccccc34)n2C2CCC3(CC2)OCCO3)cc1`, the IC50 in data set [1] was greater than 1000 nM.

For `COCC(Cc1ccc(Cl)cc1)N(C(=O)c1csc2ccccc12)C1CCC2(CC1)OCCO2` (racemic), the values for the IC50 in data set [1] and in [7] were 12 nM and 27 nM, respectively.

`O=C(c1csc2ccccc12)N(C1CCC2(CC1)OCCO2)C(CO)Cc1ccc(Cl)cc1` (racemic) yielded an IC50 in [1] greater than 1000 nM.

Take `CCc1ccccc1C(=O)N(C1CCC2(CC1)OCCO2)C(Cc1ccc(Cl)cc1)CN(C)C` (racemic): the figures for the concentration for half-maximal inhibition (IC50) in data set [1] and in data set [7] were 27 nM and 25 nM, respectively. For the same molecule, the Activity in data set [2] came to 17 nM; in [9], 0.63 nM; in data set [3] it was 4.8 µM; in data set [10], 178 nM. In [4], this molecule registered a logD greater than 5. In addition, the fraction unbound in [5] was 0.004. In addition, the pKa in data set [6] came to 7.4.

Turning to `CN(C)CC(Cc1ccc(Cl)cc1)N(C(=O)c1cccc2ccccc12)C1CCC2(CC1)OCCO2` (racemic), the values for the IC50 in data set [1] and in [7] were 13 nM and 22 nM, respectively. Moreover, the logD in data set [4] is 4.6.

Take `CCc1ccccc1C(=O)N(C1CCC2(CC1)OCCO2)C(Cc1ccc(Cl)cc1)c1noc(C)n1` (racemic): the 50% inhibitory concentration (IC50) in data set [1] was found to be 8 nM; in data set [7], 40 nM. Moreover, the logD in data set [4] is greater than 5.
